# Test results as given in US20100317831A1, “PROBE COMPOUNDS FOR PROTEIN TYROSINE PHOSPHATASE (PTP) AND PRECURSORS THEREOF” (NATIONAL TAIWAN UNIVERSITY, priority 2009, published 2010).
# Molecular target: T1, PTP1B (Homo sapiens, UniProt P18031)
# T1 sequence (P18031 1-435): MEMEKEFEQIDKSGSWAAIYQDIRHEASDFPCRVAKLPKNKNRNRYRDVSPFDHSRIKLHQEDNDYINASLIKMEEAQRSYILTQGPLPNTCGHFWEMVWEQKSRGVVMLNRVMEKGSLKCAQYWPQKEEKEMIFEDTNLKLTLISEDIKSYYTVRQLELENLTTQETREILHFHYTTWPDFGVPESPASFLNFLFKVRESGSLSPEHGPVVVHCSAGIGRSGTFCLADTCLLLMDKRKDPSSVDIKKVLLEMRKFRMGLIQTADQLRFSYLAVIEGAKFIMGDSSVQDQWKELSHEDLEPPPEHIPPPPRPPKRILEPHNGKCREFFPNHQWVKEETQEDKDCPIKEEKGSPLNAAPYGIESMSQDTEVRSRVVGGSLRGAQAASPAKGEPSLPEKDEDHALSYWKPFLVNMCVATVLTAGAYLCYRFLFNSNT
# Assay: PTP1B labeling by probe compound (streptavidin immunoblot)
# Format: biochemical
# Excerpt: FIG. 1b was visualized by immunoblotting analysis (streptavidin) after transferring the reaction products onto a nitrocellulose membrane. […] Since the probe compounds themselves are also the substrates of the corresponding PTPs, the results clearly indicate that the newly developed latent trapping unit well mimics the phosphorotyrosine residue of the natural substrate. […] In the absence of PTPs, they underwent hydrolysis slowly and the purity remained greater than 90% even after 1 hr (as determined by HPLC).
# To test if probe compounds 30a-c could differentiate PTPs from other phosphatases, we conducted labeling experiments on nine phosphatases, including five PTPs, alkaline phosphatase (ALP), PTEN (dephosphorylating the phosphatidylinositol 3,4,5-trisphosphate), and two serine/threonine phosphatases (PPP1CA and PPM1A).
# In order to further study how well probe compounds 30a-c could differentiate between the various PTPs, we compared the labeling intensities on five PTPs (PTP1B, SHP2, TCPTP, VHR, and PTPPEST) with those obtained from probe 1 (LCL2). When the intensities of the probe compounds 30a-c-labeled bands in each set of experiments were normalized relative to that of a probe 1-labeled band, we were able to establish a quantitative comparison of their labeling preference (as shown in FIGS. 4a to 4e). […] Of the five PTPs tested, the substrate specificities of PTP1B, TCPTP, and SHP2 were better studied than those of VHR and PTP-PEST. […] The trend of substrate preference obtained from this study was similar to those determined by other methods. We have also compared the labeling intensity data for the other two PTPs, VHR (a dual-specificity phosphatase) and PTP-PEST (a classical PTP). […] This provides evidence to support the concept that probe compounds with added amino acid residues flanking the latent trapping device were able to influence their target specificities.
smiles,measurement,setting,value
CC(C)CC(NC(=O)C(Cc1ccc(OP(=O)(O)O)c(CF)c1)NC(=O)C(CCC(=O)O)NC(=O)CCC(=O)NCCOCCOCCNC(=O)CCCCC1SC[C@H]2NC(=O)N[C@@H]12)C(N)=O (stereo partly drawn) [compound 30b],biotinylated adduct (labeling of PTP1B) with phosphatase inhibitor present,Na3VO4 present in the incubation mixture,no biotinylated adduct was observed
same,activity dependence of labeling of PTPs,"PTP1B and TCPTP, conclusion from Na3VO4 control",activity dependent
same,biotinylated protein bands (labeling of PTP1B),"immunoblotting analysis (streptavidin), FIG. 1b",Intense biotinylated protein bands were observed
